Measured values as given in US20070128217A1 (priority 2003, published 2007).

How the values were obtained:
[1] = system: control sera (pooled serum of ten healthy LUMC hospital workers; commercial negative donor pooled serum from the Dutch bloodbank); type: binding, human; set-up: Binding of Control serum LUMC to linear peptides / Binding of Control serum Blood-bank to linear peptides / Binding of Control serum LUMC to looped peptides / Binding of Control Serum Blood-Bank to Looped peptides / Binding of Control serum LUMC to linear peptides of the protein M of SARS-CoV Urbani / Binding of Control serum Blood-bank to linear peptides of the protein M of SARS-CoV Urbani / Binding of Control serum LUMC to looped peptides of the protein M of SARS-CoV Urbani / Binding of Control Serum Blood-Bank to Looped peptides of the protein M of SARS-CoV Urbani: unit not given here
[2] = system: rabbit serum obtained by immunizing a rabbit with the SARS-CoV strain Frankfurt 1; type: binding; set-up: Binding of a rabbit serum to linear peptides / Binding of a rabbit serum to looped peptides / Rabbit serum linear peptides / Rabbit serum looped peptides / Binding of a rabbit serum to linear peptides of protein N of SARS-CoV Urbani (Rabbit serum linear peptides) / Binding of a rabbit serum to looped/cyclic peptides of protein N of SARS-CoV Urbani (Rabbit serum looped peptides): unit not given here
[3] = system: antibodies in sera from SARS patients (sera 1a, 1b, 2, 6, 37, 62, London, SARS-yellow, SARS-green); type: binding, human; set-up: Binding of serum 6 to linear peptides of protein X1 of SARS-CoV Urbani / Binding of serum 37 to linear peptides of protein X1 of SARS-CoV Urbani / Binding of serum 6 to looped/cyclic peptide (PEPSCAN-ELISA) / Binding of serum 37 to looped/cyclic peptide (PEPSCAN-ELISA) / Binding of serum 37 to looped/cyclic peptides of protein X1 of SARS-CoV Urbani / Binding of serum 6 to linear peptides of protein X2 / Binding of serum 37 to linear peptides of protein X2 / Binding of serum 37 to looped/cyclic peptides of protein X2 of SARS-CoV Urbani / Binding of serum 6 to linear peptides of protein M of SARS-CoV Urbani / Binding of serum 37 to linear peptides of protein M of SARS-CoV Urbani / Binding of serum 6 to looped/cyclic peptides of protein M of SARS-CoV Urbani / Binding of serum 37 to looped/cyclic peptides of protein M of SARS-CoV Urbani / Binding of serum 6 to linear peptides of protein X3 of SARS-CoV Urbani / Binding of serum 37 to linear peptides of protein X3 of SARS-CoV Urbani / Binding of serum 37 to looped/cyclic peptides of protein X3 of SARS-CoV Urbani / Binding of serum 6 to linear peptides of protein X4 of SARS-CoV Urbani / Binding of serum 37 to linear peptides of protein X4 of SARS-CoV Urbani / Binding of serum 37 to looped/cyclic peptides of protein X4 of SARS-CoV Urbani / Binding of serum 6 to linear peptides of protein X5 of SARS-CoV Urbani / Binding of serum 37 to linear peptides of protein X5 of SARS-CoV Urbani / Binding of serum 37 to looped/cyclic peptides of protein X5 of SARS-CoV Urbani / Binding of serum 6 to linear peptides of protein N of SARS-CoV Urbani / Binding of serum 37 to linear peptides of protein N of SARS-CoV Urbani / Binding of serum 6 to linear peptide (PEPSCAN-ELISA) / Binding of serum 1a to looped/cyclic peptides of protein N of SARS-CoV Urbani / Binding of serum 1b to looped/cyclic peptides of protein N of SARS-CoV Urbani / Binding of serum 2 to looped/cyclic peptides of protein N of SARS-CoV Urbani / Binding of serum 6 to looped/cyclic peptides of protein N of SARS-CoV Urbani / Binding of serum 37 to looped/cyclic peptides of protein N of SARS-CoV Urbani / Binding of serum 62 to looped/cyclic peptides of protein N of SARS-CoV Urbani / Binding of serum London to looped/cyclic peptides of protein N of SARS-CoV Urbani / Binding of serum SARS-green to looped/cyclic peptides of protein N of SARS-CoV Urbani: unit not given here

LLKVTAFQHQNSKKT
Binding of Control Serum Blood-Bank to Looped peptides [1]: 0.4
Binding of Control serum Blood-bank to linear peptides [1]: 0.3
Binding of Control serum LUMC to linear peptides [1]: 0.3
Binding of Control serum LUMC to looped peptides [1]: 0.5
Binding of a rabbit serum to linear peptides [2]: 0.6
Binding of a rabbit serum to looped peptides [2]: 0.3
Binding of serum 1a to linear peptides of protein X2 [3]: 0.2
Binding of serum 1a to looped/cyclic peptides of protein X2 of SARS-CoV Urbani [3]: 0.4
Binding of serum 1b to linear peptides of protein X2 [3]: 0.0
Binding of serum 1b to looped/cyclic peptides of protein X2 of SARS-CoV Urbani [3]: 0.3
Binding of serum 2 to linear peptides of protein X2 [3]: 0.1
Binding of serum 2 to looped/cyclic peptides of protein X2 of SARS-CoV Urbani [3]: 0.2
Binding of serum 6 to linear peptides of protein X2 [3]: 0.2
Binding of serum 6 to looped/cyclic peptides of protein X2 of SARS-CoV Urbani [3]: 0.2
Binding of serum 37 to linear peptides of protein X2 [3]: 0.5
Binding of serum 37 to looped/cyclic peptides of protein X2 of SARS-CoV Urbani [3]: 0.3
Binding of serum 62 to linear peptides of protein X2 [3]: 0.1
Binding of serum 62 to looped/cyclic peptides of protein X2 of SARS-CoV Urbani [3]: 0.4
Binding of serum London to linear peptides of protein X2 [3]: 0.2
Binding of serum London to looped/cyclic peptides of protein X2 of SARS-CoV Urbani [3]: 0.2
Binding of serum SARS-green to linear peptides of protein X2 [3]: 0.1
Binding of serum SARS-green to looped/cyclic peptides of protein X2 of SARS-CoV Urbani [3]: 0.3
Binding of serum SARS-yellow to linear peptides of protein X2 [3]: 0.1
Binding of serum SARS-yellow to looped/cyclic peptides of protein X2 of SARS-CoV Urbani [3]: 0.3

PLRGTIVTRPLMESE
Binding of Control Serum Blood-Bank to Looped peptides of the protein M of SARS-CoV Urbani [1]: 0.5
Binding of Control serum Blood-bank to linear peptides of the protein M of SARS-CoV Urbani [1]: 0.6
Binding of Control serum LUMC to linear peptides of the protein M of SARS-CoV Urbani [1]: 0.3
Binding of Control serum LUMC to looped peptides of the protein M of SARS-CoV Urbani [1]: 0.8
Rabbit serum linear peptides [2]: 0.4
Rabbit serum looped peptides [2]: 0.4
Binding of serum 1a to linear peptides of protein M of SARS-CoV Urbani [3]: 0.8
Binding of serum 1b to linear peptides of protein M of SARS-CoV Urbani [3]: 0.7
Binding of serum 2 to linear peptides of protein M of SARS-CoV Urbani [3]: 0.4
Binding of serum 6 to linear peptides of protein M of SARS-CoV Urbani [3]: 0.4
Binding of serum 37 to linear peptides of protein M of SARS-CoV Urbani [3]: 0.8
Binding of serum 62 to linear peptides of protein M of SARS-CoV Urbani [3]: 0.7
Binding of serum London to linear peptides of protein M of SARS-CoV Urbani [3]: 0.3
Binding of serum SARS-green to linear peptides of protein M of SARS-CoV Urbani [3]: 0.5
Binding of serum SARS-yellow to linear peptides of protein M of SARS-CoV Urbani [3]: 0.0
Recognition of the peptide by sera of SARS-CoV infected individuals, and form (linear, looped/cyclic) in which it is recognized [3]: recognized in looped/cyclic form

RFLYIIKLVFLWLLW
Binding of Control Serum Blood-Bank to Looped peptides of the protein M of SARS-CoV Urbani [1]: 0.7
Binding of Control serum Blood-bank to linear peptides of the protein M of SARS-CoV Urbani [1]: 0.7
Binding of Control serum LUMC to linear peptides of the protein M of SARS-CoV Urbani [1]: 0.8
Binding of Control serum LUMC to looped peptides of the protein M of SARS-CoV Urbani [1]: 0.8
Rabbit serum linear peptides [2]: 0.2
Rabbit serum looped peptides [2]: 0.3
Binding of serum 1a to linear peptides of protein M of SARS-CoV Urbani [3]: 0.7
Binding of serum 1b to linear peptides of protein M of SARS-CoV Urbani [3]: 0.7
Binding of serum 2 to linear peptides of protein M of SARS-CoV Urbani [3]: 0.6
Binding of serum 6 to linear peptides of protein M of SARS-CoV Urbani [3]: 0.8
Binding of serum 37 to linear peptides of protein M of SARS-CoV Urbani [3]: 0.4
Binding of serum 62 to linear peptides of protein M of SARS-CoV Urbani [3]: 0.4
Binding of serum London to linear peptides of protein M of SARS-CoV Urbani [3]: 0.6
Binding of serum SARS-green to linear peptides of protein M of SARS-CoV Urbani [3]: 0.6
Binding of serum SARS-yellow to linear peptides of protein M of SARS-CoV Urbani [3]: 0.3
Recognition of the peptide by sera of SARS-CoV infected individuals, and form (linear, looped/cyclic) in which it is recognized [3]: recognized in looped/cyclic form
